#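 Each compound was tested at five concentrations against cells in 96-well plates for 48 hours. Abbreviation: GI50, concentration required for 50% inhibition of growth.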 The source made the active and inactive calls. Rule as the data show it: active = GI50 up to about 1.1 µM and inactive = higher.
# Columns and labels:
# Experiment in all cases: NCI tumour cell line growth inhibition, 48 h
# HOP-92 = tested on: HOP-92
# SK-MEL-2 = tested on: SK-MEL-2
# M14 = tested on: M14
# OVCAR-3 = tested on: OVCAR-3
# SR = tested on: SR
# SF-268 = tested on: SF-268
# Hs-578T = tested on: Hs-578T
# CAKI-1 = tested on: CAKI-1
# HCT-116 = tested on: HCT-116
# NCI-H226 = tested on: NCI-H226
# LOX IMVI = tested on: LOX IMVI
# RPMI-8226 = tested on: RPMI-8226
# NCI/ADR-RES = tested on: NCI/ADR-RES
# MDA-MB-435 = tested on: MDA-MB-435
# 786-0 = tested on: 786-0
# DU-145 = tested on: DU-145
# CCRF-CEM = tested on: CCRF-CEM
# U-251 = tested on: U-251
# TK-10 = tested on: TK-10
# KM12 = tested on: KM12
# NCI-H460 = tested on: NCI-H460
# K562 = tested on: K562
# SK-MEL-5 = tested on: SK-MEL-5
# OVCAR-5 = tested on: OVCAR-5
# SK-MEL-28 = tested on: SK-MEL-28
# HL-60 = tested on: HL-60
# SNB-19 = tested on: SNB-19
# UO-31 = tested on: UO-31
# OVCAR-8 = tested on: OVCAR-8
# HCT-15 = tested on: HCT-15
# MDA-MB-231 = tested on: MDA-MB-231
# IGROV-1 = tested on: IGROV-1
# EKVX = tested on: EKVX
# OVCAR-4 = tested on: OVCAR-4
# PC-3 = tested on: PC-3
# NCI-H522 = tested on: NCI-H522
# BT-549 = tested on: BT-549
# HOP-62 = tested on: HOP-62
# SN12C = tested on: SN12C
# SK-OV-3 = tested on: SK-OV-3
# COLO 205 = tested on: COLO 205
# Malme-3M = tested on: Malme-3M
# RXF 393 = tested on: RXF 393
# UACC-257 = tested on: UACC-257
# MOLT-4 = tested on: MOLT-4
# HT-29 = tested on: HT-29
# SF-295 = tested on: SF-295
# SW-620 = tested on: SW-620
# ACHN = tested on: ACHN
# A549 = tested on: A549
# MDA-N = tested on: MDA-N
# SF-539 = tested on: SF-539
# UACC-62 = tested on: UACC-62
# A498 = tested on: A498
# MCF7 = tested on: MCF7
# NCI-H23 = tested on: NCI-H23
# HCC 2998 = tested on: HCC 2998
# T47D = tested on: T47D
# SNB-75 = tested on: SNB-75
structure (smiles),measurement,setting,value
CC(=O)Oc1ccccc1/C=C/C(=O)/C=C/c1ccccc1OC(C)=O,GI50,HOP-92,4110 nM (inactive)
same,GI50,SK-MEL-2,3790 nM (inactive)
same,GI50,M14,1950 nM (inactive)
same,GI50,OVCAR-3,1660 nM (inactive)
same,GI50,SR,867 nM (active)
same,GI50,SF-268,1710 nM (inactive)
same,GI50,Hs-578T,3690 nM (inactive)
same,GI50,CAKI-1,3750 nM (inactive)
same,GI50,HCT-116,239 nM (active)
same,GI50,NCI-H226,1810 nM (inactive)
same,GI50,LOX IMVI,640 nM (active)
same,GI50,RPMI-8226,308 nM (active)
same,GI50,NCI/ADR-RES,3330 nM (inactive)
same,GI50,MDA-MB-435,2150 nM (inactive)
same,GI50,786-0,1790 nM (inactive)
same,GI50,DU-145,3080 nM (inactive)
same,GI50,CCRF-CEM,501 nM (active)
same,GI50,U-251,1510 nM (inactive)
same,GI50,TK-10,3390 nM (inactive)
same,GI50,KM12,1090 nM (active)
same,GI50,NCI-H460,2050 nM (inactive)
same,GI50,K562,429 nM (active)
same,GI50,SK-MEL-5,1840 nM (inactive)
same,GI50,OVCAR-5,2210 nM (inactive)
same,GI50,SK-MEL-28,1970 nM (inactive)
same,GI50,HL-60,748 nM (active)
same,GI50,SNB-19,2390 nM (inactive)
same,GI50,UO-31,1680 nM (inactive)
same,GI50,OVCAR-8,1940 nM (inactive)
same,GI50,HCT-15,2090 nM
same,GI50,MDA-MB-231,2660 nM (inactive)
same,GI50,IGROV-1,2000 nM (inactive)
same,GI50,EKVX,1790 nM (inactive)
same,GI50,OVCAR-4,2380 nM (inactive)
same,GI50,PC-3,1650 nM (inactive)
same,GI50,NCI-H522,1960 nM (inactive)
same,GI50,BT-549,1730 nM (inactive)
same,GI50,HOP-62,2440 nM (inactive)
same,GI50,SN12C,1900 nM (inactive)
same,GI50,SK-OV-3,4150 nM (inactive)
same,GI50,COLO 205,1890 nM (inactive)
same,GI50,Malme-3M,2810 nM (inactive)
same,GI50,RXF 393,126 nM (active)
same,GI50,UACC-257,1360 nM (inactive)
same,GI50,MOLT-4,1360 nM (inactive)
same,GI50,HT-29,1940 nM (inactive)
same,GI50,SF-295,2260 nM (inactive)
same,GI50,SW-620,447 nM (active)
same,GI50,ACHN,1800 nM (inactive)
same,GI50,A549,2260 nM (inactive)
same,GI50,MDA-N,1910 nM (inactive)
same,GI50,SF-539,1740 nM (inactive)
same,GI50,UACC-62,1640 nM (inactive)
same,GI50,A498,2080 nM (inactive)
same,GI50,MCF7,959 nM (active)
same,GI50,NCI-H23,1730 nM (inactive)
same,GI50,HCC 2998,1880 nM (inactive)
same,GI50,T47D,3490 nM (inactive)
CCCCCCNC(=S)N/N=C(\C)c1ccccn1,GI50,SK-MEL-2,3090 nM (inactive)
same,GI50,M14,33.7 nM (active)
same,GI50,OVCAR-3,< 10 nM (active)
same,GI50,SR,< 10 nM (active)
same,GI50,SF-268,604 nM (active)
same,GI50,Hs-578T,20700 nM (inactive)
same,GI50,CAKI-1,< 10 nM (active)
same,GI50,HCT-116,< 10 nM (active)
same,GI50,NCI-H226,138 nM (active)
same,GI50,LOX IMVI,49.3 nM (active)
same,GI50,RPMI-8226,< 10 nM (active)
same,GI50,NCI/ADR-RES,< 10 nM (active)
same,GI50,MDA-MB-435,1530 nM (inactive)
same,GI50,786-0,< 26.8 nM (active)
same,GI50,DU-145,1520 nM (inactive)
same,GI50,CCRF-CEM,< 10 nM (active)
same,GI50,U-251,200 nM (active)
same,GI50,TK-10,550 nM (active)
same,GI50,KM12,394 nM (active)
same,GI50,NCI-H460,347 nM (active)
same,GI50,K562,< 10 nM (active)
same,GI50,SK-MEL-5,299 nM (active)
same,GI50,OVCAR-5,728 nM (active)
same,GI50,SK-MEL-28,2560 nM (inactive)
same,GI50,HL-60,< 10 nM (active)
same,GI50,SNB-19,3400 nM (inactive)
same,GI50,UO-31,124 nM (active)
same,GI50,OVCAR-8,91.2 nM (active)
same,GI50,HCT-15,< 10 nM
same,GI50,MDA-MB-231,217 nM (active)
same,GI50,IGROV-1,< 10 nM (active)
same,GI50,EKVX,17.6 nM (active)
same,GI50,OVCAR-4,11400 nM (inactive)
same,GI50,PC-3,< 10 nM (active)
same,GI50,NCI-H522,60 nM (active)
same,GI50,BT-549,111 nM (active)
same,GI50,HOP-62,44.5 nM (active)
same,GI50,SN12C,1410 nM (inactive)
same,GI50,SK-OV-3,181 nM (active)
same,GI50,COLO 205,< 10 nM (active)
same,GI50,Malme-3M,2650 nM (inactive)
same,GI50,RXF 393,18.9 nM (active)
same,GI50,UACC-257,10 nM (active)
same,GI50,MOLT-4,< 10 nM (active)
same,GI50,SF-295,407 nM (active)
same,GI50,SW-620,< 32.2 nM (active)
same,GI50,ACHN,< 11.3 nM (active)
same,GI50,A549,120 nM (active)
same,GI50,MDA-N,904 nM (active)
same,GI50,SF-539,1840 nM (inactive)
same,GI50,UACC-62,182 nM (active)
same,GI50,A498,3180 nM (inactive)
same,GI50,MCF7,< 41.5 nM (active)
same,GI50,NCI-H23,< 31.1 nM (active)
same,GI50,SNB-75,3990 nM (inactive)
same,GI50,HCC 2998,741 nM (active)
same,GI50,T47D,< 10 nM (active)
CC(=O)c1ccc2c(c1)CC1(C2)Cc2cc3c(c(C(=O)O)c2C1)CCC3 (stereo unspecified),GI50,HOP-92,22600 nM (inactive)
same,GI50,OVCAR-3,92500 nM (inactive)
same,GI50,SR,71600 nM (inactive)
same,GI50,SF-268,> 100000 nM (inactive)
same,GI50,Hs-578T,33000 nM (inactive)
same,GI50,CAKI-1,> 100000 nM (inactive)
same,GI50,HCT-116,> 100000 nM (inactive)
same,GI50,NCI-H226,> 100000 nM (inactive)
same,GI50,LOX IMVI,> 100000 nM (inactive)
same,GI50,RPMI-8226,63700 nM (inactive)
same,GI50,NCI/ADR-RES,80500 nM (inactive)
same,GI50,MDA-MB-435,> 100000 nM (inactive)
same,GI50,786-0,> 100000 nM (inactive)
same,GI50,DU-145,> 100000 nM (inactive)
same,GI50,CCRF-CEM,81800 nM (inactive)
same,GI50,U-251,55800 nM (inactive)
same,GI50,TK-10,> 100000 nM (inactive)
same,GI50,KM12,> 100000 nM (inactive)
same,GI50,NCI-H460,64600 nM (inactive)
same,GI50,K562,72400 nM (inactive)
same,GI50,SK-MEL-5,44600 nM (inactive)
same,GI50,OVCAR-5,> 100000 nM (inactive)
same,GI50,SK-MEL-28,> 100000 nM (inactive)
same,GI50,HL-60,> 100000 nM (inactive)
same,GI50,UO-31,40000 nM (inactive)
same,GI50,OVCAR-8,> 100000 nM (inactive)
same,GI50,HCT-15,> 100000 nM
same,GI50,MDA-MB-231,> 100000 nM (inactive)
same,GI50,IGROV-1,> 100000 nM (inactive)
same,GI50,EKVX,> 100000 nM (inactive)
same,GI50,OVCAR-4,78700 nM (inactive)
same,GI50,PC-3,> 100000 nM (inactive)
same,GI50,NCI-H522,79600 nM (inactive)
same,GI50,BT-549,> 100000 nM (inactive)
same,GI50,HOP-62,> 100000 nM (inactive)
same,GI50,SN12C,> 100000 nM (inactive)
same,GI50,SK-OV-3,> 100000 nM (inactive)
same,GI50,COLO 205,53100 nM (inactive)
same,GI50,Malme-3M,53100 nM (inactive)
same,GI50,RXF 393,> 100000 nM (inactive)
same,GI50,UACC-257,> 100000 nM (inactive)
same,GI50,MOLT-4,> 100000 nM (inactive)
same,GI50,HT-29,> 100000 nM (inactive)
same,GI50,SF-295,> 100000 nM (inactive)
same,GI50,SW-620,> 100000 nM (inactive)
same,GI50,ACHN,68100 nM (inactive)
same,GI50,A549,37900 nM (inactive)
same,GI50,MDA-N,> 100000 nM (inactive)
same,GI50,SF-539,> 100000 nM (inactive)
same,GI50,UACC-62,72100 nM (inactive)
same,GI50,A498,> 100000 nM (inactive)
same,GI50,MCF7,> 100000 nM (inactive)
same,GI50,NCI-H23,> 100000 nM (inactive)
same,GI50,SNB-75,61500 nM (inactive)
same,GI50,HCC 2998,> 100000 nM (inactive)
same,GI50,T47D,53500 nM (inactive)
